Test results published in patent US11319348B2, “Synthetic beta-amyloid peptides capable of forming stable antigenic oligomers” (The Regents of the University of California, priority 2016, dated 2022).
Non-standard residues stand in square brackets, D forms with d. No end group written: not given here. NMeF = CN[C@@H](Cc1ccccc1)C(=O)O; Orn = NCCC[C@H](N)C(=O)O

Legend:
SH-SY5Y cells = test: LDH release assay; type: cell-based, human; settings: for LDH release / toxicity toward SH-SY5Y cells, in words / lowest concentration with increased LDH release / toxicity (concentrations as low as) / LDH release: SH-SY5Y cells; for LDH release: 72 h
Procedure: Aβ is known to be toxic toward neurons and neuronally derived cells (I. Benilova, et al., 2012, cited supra). To corroborate the toxicity of Aβ, we prepared oligomers of Aβ42 and studied their toxicity toward a human neuroblastoma cell line, SH-SY5Y. Aβ oligomers were prepared according to the procedure developed by Teplow and coworkers using recombinantly expressed Aβ42 pretreated with NH4OH (purchased from rPeptide) (D. B. Teplow, Methods Enzymol. 2006 413, 20-33; and Y. Fezoui, et al., Amyloid. 2000 7, 166-178; the disclosures of which are incorporated herein by reference). Under the conditions of the oligomer preparation, Aβ42 forms predominantly monomer, trimer, and tetramer as assessed by SDS-PAGE (FIG. 28A). It was also observed that bands migrated with molecular weights consistent with a pentamer and hexamer. SH-SY5Y cells were treated with varying concentrations of Aβ42, and toxicity was evaluated using a lactate dehydrogenase (LDH) release assay. Aβ42 increased LDH release in a dose-dependent manner at concentrations as low as 2.5 μM, corroborating the toxicity of Aβ42 (FIG. 28B).
It was hypothesized that trimers 3 and 4 may elicit toxicity similarly to Aβ42. The toxicities of trimers 3 and 4 towards SH-SY5Y cells were evaluated using an LDH assay, using deionized water (vehicle) and peptides 1 and 2 as controls. Trimer 4 increased LDH release in a dose-dependent manner at concentrations as low as 1.5 μM, indicating toxicity toward SH-SY5Y cells (FIG. 29A). LDH release was observed as early as 48 h after addition to the cells and reached a maximum after 72 h.
Many oligomers formed by full-length Aβ are toxic toward cells (I. Benilove, E. Karan, and B. De Strooper, Nat. Neurosci. 2012 15, 349-357; and M. E. Larson and S. E. Lesne J. Neurochem. 2012 120, 125-139; the disclosures of which are incorporated herein by reference). To test whether the oligomers formed by peptide 8 are also toxic, the toxicity of peptide 8 toward neuronally derived SH-SY5Y cells were evaluated using a lactate dehydrogenase (LDH) release assay. Peptide 8 and 10 were compared to investigate how the hexamer-forming Aβ16-36-derived peptide compares to a non-oligomerizing homologue. The toxicity of peptides 2 and 11 were also evaluated to better understand the relationship between oligomerization and toxicity.
The toxicities of peptides 1 and […], and trimers 3 and 4 toward SH-SY5Y cells were assessed by LDH release and caspase-3 activation assays. Cells were incubated in the presence or absence of equivalent concentrations of peptides 1 or 3, or trimers 3 and 4 for 72 h in 96-well plates. The LDH release assay was performed using the Pierce LDH Cytotoxicity Assay Kit from Thermo Scientific. The caspase-3 assay was performed using the Roche APO-One Homogeneous Caspase-3/7 Assay. Experiments were performed in replicates of five and an additional 10 wells were used for controls. Cells were cultured in the inner 60 wells (rows B-G, columns 2-11) of the 96-well plate. DMEM:F12 media (100 μL) was added to the outer wells (rows A and H, columns 1 and 12), in order to ensure the greatest reproducibility of data generated in the inner wells.
A 10 mg/mL stock solution of peptides 1 or […], or trimers 3 and 4 was prepared gravimetrically by dissolving 1 mg of each compound in 100 μL of deionized water that was either filtered through a 0.2 μm syringe filter or autoclaved. The stock solution was used to create 180 μM working solutions of peptides 1 or 3, or 60 μM working solutions of trimers 3 and 4 (these solutions contain equivalent concentrations of peptide). The 180 μM working solutions of peptides 1 and 2 were serially diluted with deionized water to create 90 μM working solutions of peptides 1 and 2. The 60 μM working solutions of trimers 3 and 4 were serially diluted with deionized water to create 30 μM, 15 μM, and 7.5 μM working solutions of trimers 3 and 4.
SH-SY5Y cells were plated in a 96-well plate at 30,000 cells per well. […]

[1] = size exclusion chromatography in sodium acetate buffer; type: physicochemical; settings: for oligomer state consistent with SEC elution volume: acetate buffer; for oligomer size by SEC: sodium acetate buffer pH 4.5
Procedure: The elution profiles in acetate buffer of trimers were compared to peptides 1 and 2. Size standards vitamin B12 (1.3 kDa), aprotinin (6.5 kDa), and […] (12.4 kDa) eluted at 18.6 mL, 15.4 mL, and 13.4 mL, respectively (FIG. 31A). Trimer 3 and […] eluted at 14.3 mL and at 14.5 mL, respectively. These elution volumes are consistent with the molecular weight of a hexamer (10.6 kDa). The peaks for trimers 3 and 4 tail slightly and may reflect a trimer-hexamer equilibrium in which the hexamer predominates.
Peptides 1 and 2 elute at 16.8 mL and 17.3 mL, respectively.
The oligomerization of peptides 1 and 2 and trimers 3 and 4 was studied by size-exclusion chromatography (SEC) at 4 CC in 50 mM sodium acetate/50 mM acetic acid buffer (sodium acetate buffer) at pH 4.5 as follows: Each peptide or trimer was dissolved in deionized water to a concentration of 10 mg/mL. The peptide or trimer solutions were then diluted to 1 mg/mL by adding 80 μL of the 10 mg/mL solutions to 720 μL of sodium acetate buffer. The peptide or trimer solutions were loaded onto a GE Superdex 75 10/300 GL column at 0.5 mL/min over 1 min. After loading, the samples were run with sodium acetate buffer at 1 mL/min, Chromatograms were recorded at 214 nm and normalized to the highest absorbance value. Standards (cytochrome C, aprotinin, and vitamin B12) were run in the same fashion.

[2] = after addition to SH-SY5Y cells

| Substance | LDH release / toxicity toward SH-SY5Y cells, in words (SH-SY5Y cells) | lowest concentration with increased LDH release / toxicity (concentrations as low as) (SH-SY5Y cells) [µM] | LDH release (SH-SY5Y cells) | oligomer state consistent with SEC elution volume [1] | oligomer size by SEC [1] | time at which LDH release reached a maximum (SH-SY5Y cells; [2]) [h] | time at which LDH release was first observed (as early as) (SH-SY5Y cells; [2]) [h] |
| --- | --- | --- | --- | --- | --- | --- | --- |
| peptide 2: macrocyclic β-sheet peptide: Aβ17-23 and Aβ30-36 strands linked by two δOrn turns, Orn35, N-methyl on F20 (Seq. ID 20-21) | little or no LDH release | 100 | no | dimers | 1-2 |  |  |
| peptide 1: macrocyclic β-sheet peptide: Aβ17-23 and Aβ30-36 strands linked by two δOrn turns, Orn35, N-methyl on G33 (Seq. ID 18-19) | little or no LDH release |  | no | dimers | 1-2 |  |  |
| trimer 3: symmetric tris-disulfide crosslinked trimer generated from peptide 3 (chain 1 [Orn]CVFFCED; chain 2 [Orn]AIIGL[Orn]V; not fully specified (some residues); also: symmetric tris-disulfide crosslinked trimer, macrocyclic by macrolactamization, linkage of strands not given here) | far less LDH release than trimer 4 |  | some | hexamer | 6 |  |  |
| trimer 4: symmetric tris-disulfide crosslinked trimer generated from peptide 4 (chain 1 [Orn]CVF[NMeF]CED; chain 2 [Orn]AIIGL[Orn]V; also: symmetric tris-disulfide crosslinked trimer, macrocyclic by macrolactamization, linkage of strands not given here) |  | 1.5 | yes | hexamer | 6 | 72 | 48 |
